Assays:
[1] = tested on: mouse model of beta-thalassemia; details: cited from earlier work
[2] = molecular target: T1, Human pyruvate kinase R (PKR) (Homo sapiens, UniProt P30613); test: Biochemical assay for activation of pyruvate kinase R (Kinase-Glo luminescence measurement of ATP generation); details: for AC50: PKR biochemical assay, 0.1 nM PKR, 0.3 mM ADP, 2 mM FBP, 0.1 mM PEP; for Emax: maximal activation level relative to the activation level achieved by the literature compound AG-348 @ 10 μM
T1 construct: Human pyruvate kinase R (PKR), residues 14-574; 6x-His (N, cleaved yes); 8x-Arg (N, cleaved yes); SUMO (N, cleaved yes); host or cells: E. coli
Procedure, shortened: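 Recombinant human PKR (residues 14-574), E. coli-expressed with His-Arg-SUMO tag removed, purified by Ni-NTA, anion exchange and size exclusion. Activation measured as ATP generation via Kinase-Glo luminescence.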

T1 sequence (P30613 14-574): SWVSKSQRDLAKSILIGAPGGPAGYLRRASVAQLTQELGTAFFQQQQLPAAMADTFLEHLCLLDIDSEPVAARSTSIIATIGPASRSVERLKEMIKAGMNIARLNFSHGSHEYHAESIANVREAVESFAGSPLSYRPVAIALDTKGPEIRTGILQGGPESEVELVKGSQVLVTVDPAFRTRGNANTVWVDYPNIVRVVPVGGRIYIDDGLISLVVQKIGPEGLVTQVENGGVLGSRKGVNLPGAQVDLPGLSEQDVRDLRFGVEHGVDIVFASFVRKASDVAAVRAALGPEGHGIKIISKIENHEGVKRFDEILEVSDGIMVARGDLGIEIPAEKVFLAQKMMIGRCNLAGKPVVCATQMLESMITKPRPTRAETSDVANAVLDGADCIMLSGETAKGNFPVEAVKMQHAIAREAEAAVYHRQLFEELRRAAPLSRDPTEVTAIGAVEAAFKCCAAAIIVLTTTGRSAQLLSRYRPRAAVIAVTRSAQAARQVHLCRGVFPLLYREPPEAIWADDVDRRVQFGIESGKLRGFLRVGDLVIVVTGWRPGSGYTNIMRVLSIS

## O=C(c1ccc(NS(=O)(=O)c2cccc3cccnc23)cc1)N1CCN(CC2CC2)CC1 [AG-348, Mitapivat]
[1]
  PK activity, ATP levels and RBC parameters: increased PK activity and ATP levels, as well as improved RBC parameters

## Cc1nc(CNC(=O)NCc2ncnn2-c2ccn3ccnc3c2)n(-c2ccc(Cl)c(F)c2)n1 [Compound 128, 1-{[1-(4-chloro-3-fluorophenyl)-3-methyl-1H-1,2,4-triazol-5-yl]methyl}-3-[(1-{imidazo[1,2-a]pyridin-7-yl}-1H-1,2,4-triazol-5-yl)methyl]urea]
[2]
  AC50: 24 nM
  Emax: 59%

## Cc1nc(CNC(=O)NCc2ncnn2-c2cccnc2)n(-c2ccc(Cl)c(F)c2)n1 [Compound 129, 1-{[1-(4-chloro-3-fluorophenyl)-3-methyl-1H-1,2,4-triazol-5-yl]methyl}-3-{[1-(pyridin-3-yl)-1H-1,2,4-triazol-5-yl]methyl}urea]
[2]
  AC50: 430 nM
  Emax: 72%

## COc1ccc(-n2ncnc2CNC(=O)NCc2nc(C)nn2-c2ccc(Cl)c(F)c2)nc1 [Compound 130, 1-{[1-(4-chloro-3-fluorophenyl)-3-methyl-1H-1,2,4-triazol-5-yl]methyl}-3-{[1-(5-methoxypyridin-2-yl)-1H-1,2,4-triazol-5-yl]methyl}urea]
[2]
  AC50: 300 nM
  Emax: 84%

## Cc1nc(CNC(=O)NCc2ncnn2-c2ccc(C3CC3)nc2)n(-c2ccc(Cl)c(F)c2)n1 [Compound 131, 1-{[1-(4-chloro-3-fluorophenyl)-3-methyl-1H-1,2,4-triazol-5-yl]methyl}-3-{[1-(6-cyclopropylpyridin-3-yl)-1H-1,2,4-triazol-5-yl]methyl}urea]
[2]
  AC50: 78 nM
  Emax: 94%

## Cc1nc(CNC(=O)NCc2ncnn2-c2ccc(C3CCC3)nc2)n(-c2ccc(Cl)c(F)c2)n1 [Compound 132, 1-{[1-(4-chloro-3-fluorophenyl)-3-methyl-1H-1,2,4-triazol-5-yl]methyl}-3-{[1-(6-cyclobutylpyridin-3-yl)-1H-1,2,4-triazol-5-yl]methyl}urea]
[2]
  AC50: 490 nM
  Emax: 64%

## Cc1nc(CNC(=O)NCc2ncnn2-c2cncc(C3CC3)c2)n(-c2ccc(Cl)c(F)c2)n1 [Compound 133, 1-{[1-(4-chloro-3-fluorophenyl)-3-methyl-1H-1,2,4-triazol-5-yl]methyl}-3-{[1-(5-cyclopropylpyridin-3-yl)-1H-1,2,4-triazol-5-yl]methyl}urea]
[2]
  AC50: 160 nM
  Emax: 86%

## COc1cncc(-n2ncnc2CNC(=O)NCc2nc(C)nn2-c2ccc(Cl)c(F)c2)c1 [Compound 134, 1-{[1-(4-chloro-3-fluorophenyl)-3-methyl-1H-1,2,4-triazol-5-yl]methyl}-3-{[1-(5-methoxypyridin-3-yl)-1H-1,2,4-triazol-5-yl]methyl}urea]
[2]
  AC50: 170 nM
  Emax: 110%

## Cc1nc(CNC(=O)NCc2ncnn2-c2cnc3cc(F)ccc3c2)n(-c2ccc(Cl)c(F)c2)n1 [Compound 135, 1-{[1-(4-chloro-3-fluorophenyl)-3-methyl-1H-1,2,4-triazol-5-yl]methyl}-3-{[1-(7-fluoroquinolin-3-yl)-1H-1,2,4-triazol-5-yl]methyl}urea]
[2]
  AC50: 86 nM
  Emax: 117%

## Cc1nc(CNC(=O)NCc2ncnn2-c2cnc3c(F)cccc3c2)n(-c2ccc(Cl)c(F)c2)n1 [Compound 136, 3-{[1-(4-chloro-3-fluorophenyl)-3-methyl-1H-1,2,4-triazol-5-yl]methyl}-1-{[1-(8-fluoroquinolin-3-yl)-1H-1,2,4-triazol-5-yl]methyl}urea]
[2]
  AC50: 47 nM
  Emax: 94%

## Cc1cncc(-n2ncnc2CNC(=O)NCc2nc(C)nn2-c2ccc(Cl)c(F)c2)c1 [Compound 137, 1-{[1-(4-chloro-3-fluorophenyl)-3-methyl-1H-1,2,4-triazol-5-yl]methyl}-3-{[1-(5-methylpyridin-3-yl)-1H-1,2,4-triazol-5-yl]methyl}urea]
[2]
  AC50: 180 nM
  Emax: 99%

## Cc1nc(CNC(=O)NCc2nc(C)nn2-c2cnc3ccccc3c2)n(-c2ccc(Cl)c(F)c2)n1 [Compound 138, 1-{[1-(4-chloro-3-fluorophenyl)-3-methyl-1H-1,2,4-triazol-5-yl]methyl}-3-{[3-methyl-1-(quinolin-3-yl)-1H-1,2,4-triazol-5-yl]methyl}urea]
[2]
  AC50: 44 nM
  Emax: 129%

## Cc1nc(CNC(=O)NCc2ncnn2-c2cnc3ccc(F)cc3c2)n(-c2ccc(Cl)c(F)c2)n1 [Compound 139, 1-{[1-(4-chloro-3-fluorophenyl)-3-methyl-1H-1,2,4-triazol-5-yl]methyl}-3-{[1-(6-fluoroquinolin-3-yl)-1H-1,2,4-triazol-5-yl]methyl}urea]
[2]
  AC50: 61 nM
  Emax: 96%

## Cc1nc(CNC(=O)NCc2ncnn2-c2cnc3cccc(F)c3c2)n(-c2ccc(Cl)c(F)c2)n1 [Compound 140, 1-{[1-(4-chloro-3-fluorophenyl)-3-methyl-1H-1,2,4-triazol-5-yl]methyl}-3-{[1-(5-fluoroquinolin-3-yl)-1H-1,2,4-triazol-5-yl]methyl}urea]
[2]
  AC50: 25 nM
  Emax: 72%

## CCc1ccc(-n2ncnc2CNC(=O)NCc2nc(C)nn2-c2ccc(Cl)c(F)c2)cn1 [Compound 141, 1-{[1-(4-chloro-3-fluorophenyl)-3-methyl-1H-1,2,4-triazol-5-yl]methyl}-3-{[1-(6-ethylpyridin-3-yl)-1H-1,2,4-triazol-5-yl]methyl}urea]
[2]
  AC50: 140 nM
  Emax: 71%

## CCN(Cc1ncnn1-c1cnc2ccccc2c1)C(=O)NCc1nc(C)nn1-c1ccc(Cl)c(F)c1 [Compound 142, 1-{[1-(4-chloro-3-fluorophenyl)-3-methyl-1H-1,2,4-triazol-5-yl]methyl}-3-ethyl-3-{[1-(quinolin-3-yl)-1H-1,2,4-triazol-5-yl]methyl}urea]
[2]
  AC50: 250 nM
  Emax: 127%

## CCN(Cc1ncnn1-c1ccc(Cl)c(F)c1)C(=O)NCc1nc(C)nn1-c1cnc2ccccc2c1 [Compound 143, 1-{[1-(4-chloro-3-fluorophenyl)-1H-1,2,4-triazol-5-yl]methyl}-1-ethyl-3-{[3-methyl-1-(quinolin-3-yl)-1H-1,2,4-triazol-5-yl]methyl}urea]
[2]
  AC50: 140 nM
  Emax: 112%

## Cc1nc(CNC(=O)NCc2ncnn2-c2ccc(Cl)c(F)c2)n(-c2cnc3ccccc3c2)n1 [Compound 144, 1-{[1-(4-chloro-3-fluorophenyl)-1H-1,2,4-triazol-5-yl]methyl}-3-{[3-methyl-1-(quinolin-3-yl)-1H-1,2,4-triazol-5-yl]methyl}urea]
[2]
  AC50: 27 nM
  Emax: 94%

## O=C(NCc1ncnn1-c1ccc(Cl)c(F)c1)NCc1ncnn1-c1cnc2cc(F)ccc2c1 [Compound 145, 1-{[1-(4-chloro-3-fluorophenyl)-1H-1,2,4-triazol-5-yl]methyl}-3-{[1-(7-fluoroquinolin-3-yl)-1H-1,2,4-triazol-5-yl]methyl}urea]
[2]
  AC50: 51 nM
  Emax: 76%
